Calls of active or inactive are those of the source.
What was measured:
[1] = molecular target: SUMO-activating enzyme (Homo sapiens, UniProt Q9UBT2); experiment: blockers of UBC9-mediated SUMO conjugation – biochemical, AlphaScreen, SUMOylation inhibitor project, confirmation (AID 2018); assay type: functional
[2] = molecular target: T1, Alkaline phosphatase, tissue-nonspecific isozyme (Homo sapiens, UniProt P05186); experiment: TNAP enzyme inhibition by screening hits, dose response, selectivity assay for mouse IAP inhibitor project, biochemical, human TNAP, uHTS hits (AID 488906); assay type: functional
T1 sequence (P05186 whole entry): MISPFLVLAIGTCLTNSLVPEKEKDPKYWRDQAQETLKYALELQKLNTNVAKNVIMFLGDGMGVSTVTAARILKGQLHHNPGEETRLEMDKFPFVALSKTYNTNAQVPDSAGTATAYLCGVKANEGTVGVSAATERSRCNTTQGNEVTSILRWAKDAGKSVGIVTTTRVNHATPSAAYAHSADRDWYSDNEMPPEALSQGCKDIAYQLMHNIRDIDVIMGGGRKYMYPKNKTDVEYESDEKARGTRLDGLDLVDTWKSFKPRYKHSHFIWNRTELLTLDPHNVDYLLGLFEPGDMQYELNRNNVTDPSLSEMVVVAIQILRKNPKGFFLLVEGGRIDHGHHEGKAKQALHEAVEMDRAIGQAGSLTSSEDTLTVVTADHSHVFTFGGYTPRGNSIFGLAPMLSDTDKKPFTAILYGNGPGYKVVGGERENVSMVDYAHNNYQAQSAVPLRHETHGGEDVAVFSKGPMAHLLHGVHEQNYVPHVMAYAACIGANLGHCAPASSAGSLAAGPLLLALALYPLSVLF

[3] = molecular target: Glycogen synthase kinase-3 alpha (Homo sapiens, UniProt P49840); assay type: functional;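 further: GSK3A result taken from a broad kinome-wide kinase panel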
[4] = test system: CHO; experiment: CHO cell viability loss, potency – luminescence, cytotoxicity control for TLR9-MyD88 binding inhibitor project, dose response (AID 588339); assay type: functional, cell-based, hamster; conditions: Cricetulus griseus;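 further: CHO cells stably coexpressing TLR9 and MyD88 fusions from primary screen; compound exposure lasted 48 hours before viability readout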
[5] = molecular target: T2, Protein RecA (Mycobacterium tuberculosis, UniProt P9WHJ3); experiment: Fluorescence Cell-Free Homogeneous Dose Retest to Identify Inhibitors of RecA-Intein Splicing Activity. [Related pubchem assays (depositor defined):AID2097, AID2223, AID489010, AID492950]; assay type: functional
T2 sequence (P9WHJ3 whole entry): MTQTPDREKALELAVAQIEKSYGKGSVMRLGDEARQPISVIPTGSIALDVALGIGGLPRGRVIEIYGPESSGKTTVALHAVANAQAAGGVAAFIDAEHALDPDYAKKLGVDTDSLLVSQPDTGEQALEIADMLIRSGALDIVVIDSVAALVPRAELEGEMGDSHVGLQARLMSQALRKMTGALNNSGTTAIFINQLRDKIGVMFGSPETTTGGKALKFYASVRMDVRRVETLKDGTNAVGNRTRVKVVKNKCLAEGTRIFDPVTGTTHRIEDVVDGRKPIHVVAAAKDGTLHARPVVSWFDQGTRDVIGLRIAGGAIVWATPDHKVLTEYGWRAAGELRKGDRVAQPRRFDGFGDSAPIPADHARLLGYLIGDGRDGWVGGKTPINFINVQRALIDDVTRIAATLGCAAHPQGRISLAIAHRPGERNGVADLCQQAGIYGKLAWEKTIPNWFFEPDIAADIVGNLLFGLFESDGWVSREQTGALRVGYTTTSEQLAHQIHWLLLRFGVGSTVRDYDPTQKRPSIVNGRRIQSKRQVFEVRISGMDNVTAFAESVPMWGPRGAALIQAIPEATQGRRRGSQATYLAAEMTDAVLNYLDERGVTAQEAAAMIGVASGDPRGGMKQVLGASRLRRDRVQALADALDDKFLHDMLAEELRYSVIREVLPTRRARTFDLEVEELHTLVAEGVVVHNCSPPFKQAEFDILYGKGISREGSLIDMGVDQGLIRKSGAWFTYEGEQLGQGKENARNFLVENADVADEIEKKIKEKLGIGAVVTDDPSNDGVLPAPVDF

[6] = molecular target: Platelet-derived growth factor receptor beta (Homo sapiens, UniProt P09619); assay type: functional;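 further: value comes from a kinome panel, with PDGFRB tested as one panel member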
[7] = Trypanosoma cruzi growth suppression in host cells – NIH3T3 host cells, beta-gal luminescence, confirmation (AID 2044); assay type: functional, cell-based;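 further: intracellular parasites grown in NIH/3T3 mouse fibroblasts as host cells; luminescent beta-galactosidase reporter signal from transgenic T. cruzi replicating inside host cells; inhibitors lower the luminescence signal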
[8] = mammalian cell viability loss – Alamar Blue, dry powder, cytotoxicity control for antifungal single agent project, dose response (AID 602188); assay type: functional, cell-based
[9] = molecular target: T3, Serine/threonine-protein phosphatase (Candida dubliniensis (strain CD36 / CBS 7987 / NCPF 3949 / NRRLY-17841) (Yeast), UniProt B9W6M3); experiment: blockers of CaCl2-induced CDRE-lacZ signaling – S. cerevisiae, luminescence, secondary, dose response (AID 2388); assay type: functional, cell-based;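 further: yeast reporter cells carrying a calcineurin-responsive lacZ construct stimulated with calcium chloride; luminescent beta-galactosidase reporter signal in whole cells rather than isolated phosphatase activity; potency for inhibition where a drop in reporter signal means calcineurin blockade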
T3 sequence (B9W6M3 whole entry): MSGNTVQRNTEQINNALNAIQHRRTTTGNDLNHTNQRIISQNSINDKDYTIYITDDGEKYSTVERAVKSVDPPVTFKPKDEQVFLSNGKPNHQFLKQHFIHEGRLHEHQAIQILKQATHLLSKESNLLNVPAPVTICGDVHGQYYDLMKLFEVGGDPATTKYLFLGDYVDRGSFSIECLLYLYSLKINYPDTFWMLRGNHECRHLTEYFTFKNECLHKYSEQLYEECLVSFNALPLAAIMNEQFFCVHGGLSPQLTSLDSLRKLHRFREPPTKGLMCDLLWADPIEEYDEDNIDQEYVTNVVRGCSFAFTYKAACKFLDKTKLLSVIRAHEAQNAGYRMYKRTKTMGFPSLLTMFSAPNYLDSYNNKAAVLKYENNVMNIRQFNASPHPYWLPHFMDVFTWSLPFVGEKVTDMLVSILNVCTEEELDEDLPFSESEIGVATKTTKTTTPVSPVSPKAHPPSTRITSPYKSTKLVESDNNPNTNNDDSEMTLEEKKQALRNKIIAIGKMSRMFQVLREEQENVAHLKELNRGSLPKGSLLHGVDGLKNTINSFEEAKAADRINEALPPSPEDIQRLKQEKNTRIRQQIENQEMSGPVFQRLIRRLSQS

Chain of SUMO-activating enzyme (Q9UBE0 whole entry): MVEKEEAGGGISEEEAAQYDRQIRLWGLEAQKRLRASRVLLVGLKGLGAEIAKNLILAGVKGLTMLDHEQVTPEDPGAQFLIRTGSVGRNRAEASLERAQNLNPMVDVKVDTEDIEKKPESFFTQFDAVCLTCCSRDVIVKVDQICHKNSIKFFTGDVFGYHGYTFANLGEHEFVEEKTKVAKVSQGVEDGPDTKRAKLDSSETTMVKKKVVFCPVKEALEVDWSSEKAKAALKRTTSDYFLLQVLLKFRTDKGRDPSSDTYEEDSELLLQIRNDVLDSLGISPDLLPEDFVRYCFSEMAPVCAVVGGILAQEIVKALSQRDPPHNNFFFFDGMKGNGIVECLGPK
Chain of SUMO-activating enzyme (Q9UBT2 whole entry): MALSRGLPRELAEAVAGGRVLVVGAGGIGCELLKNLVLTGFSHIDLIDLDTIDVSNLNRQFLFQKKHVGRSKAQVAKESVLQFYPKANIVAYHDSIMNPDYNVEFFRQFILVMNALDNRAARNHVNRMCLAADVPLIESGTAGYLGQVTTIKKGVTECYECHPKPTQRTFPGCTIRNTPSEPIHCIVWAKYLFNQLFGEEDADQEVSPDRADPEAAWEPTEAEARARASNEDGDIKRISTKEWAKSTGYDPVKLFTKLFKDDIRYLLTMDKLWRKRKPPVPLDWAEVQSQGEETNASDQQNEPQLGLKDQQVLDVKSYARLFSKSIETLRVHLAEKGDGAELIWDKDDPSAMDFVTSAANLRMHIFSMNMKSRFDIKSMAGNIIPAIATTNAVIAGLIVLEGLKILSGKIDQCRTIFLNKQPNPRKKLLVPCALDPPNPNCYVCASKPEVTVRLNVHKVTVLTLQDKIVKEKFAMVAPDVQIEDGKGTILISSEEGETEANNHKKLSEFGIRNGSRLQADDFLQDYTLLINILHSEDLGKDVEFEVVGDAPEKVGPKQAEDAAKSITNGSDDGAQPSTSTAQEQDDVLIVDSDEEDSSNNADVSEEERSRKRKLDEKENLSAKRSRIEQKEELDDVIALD
Chain of Platelet-derived growth factor receptor beta (P09619 whole entry): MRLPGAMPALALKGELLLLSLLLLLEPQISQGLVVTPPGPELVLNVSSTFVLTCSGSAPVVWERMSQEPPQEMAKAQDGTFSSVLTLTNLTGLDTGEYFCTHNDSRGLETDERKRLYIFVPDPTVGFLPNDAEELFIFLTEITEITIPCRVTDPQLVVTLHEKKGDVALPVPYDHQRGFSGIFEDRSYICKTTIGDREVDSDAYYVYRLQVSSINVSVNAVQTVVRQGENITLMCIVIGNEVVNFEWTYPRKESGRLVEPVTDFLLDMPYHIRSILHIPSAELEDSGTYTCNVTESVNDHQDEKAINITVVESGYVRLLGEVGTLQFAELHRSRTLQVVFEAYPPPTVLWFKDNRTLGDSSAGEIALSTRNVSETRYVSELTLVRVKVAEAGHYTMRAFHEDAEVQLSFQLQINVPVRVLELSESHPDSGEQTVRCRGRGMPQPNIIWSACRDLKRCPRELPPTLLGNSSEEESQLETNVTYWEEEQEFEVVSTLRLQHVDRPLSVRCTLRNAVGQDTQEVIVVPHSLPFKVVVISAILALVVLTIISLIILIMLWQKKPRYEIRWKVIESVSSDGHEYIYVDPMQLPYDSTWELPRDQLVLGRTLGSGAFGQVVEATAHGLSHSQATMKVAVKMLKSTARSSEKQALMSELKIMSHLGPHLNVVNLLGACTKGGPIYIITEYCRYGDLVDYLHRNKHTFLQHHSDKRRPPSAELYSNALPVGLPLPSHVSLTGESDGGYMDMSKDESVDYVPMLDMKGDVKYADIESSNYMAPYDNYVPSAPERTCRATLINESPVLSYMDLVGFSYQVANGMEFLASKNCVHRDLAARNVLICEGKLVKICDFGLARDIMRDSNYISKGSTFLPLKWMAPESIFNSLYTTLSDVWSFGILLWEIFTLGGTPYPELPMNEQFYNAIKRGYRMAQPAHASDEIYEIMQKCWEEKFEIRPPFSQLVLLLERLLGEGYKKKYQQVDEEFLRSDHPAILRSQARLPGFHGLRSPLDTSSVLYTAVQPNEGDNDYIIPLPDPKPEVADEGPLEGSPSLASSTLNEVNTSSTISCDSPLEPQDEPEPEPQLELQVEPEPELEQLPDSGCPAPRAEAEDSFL
Chain of Glycogen synthase kinase-3 alpha (P49840 whole entry, the tested form may be a part): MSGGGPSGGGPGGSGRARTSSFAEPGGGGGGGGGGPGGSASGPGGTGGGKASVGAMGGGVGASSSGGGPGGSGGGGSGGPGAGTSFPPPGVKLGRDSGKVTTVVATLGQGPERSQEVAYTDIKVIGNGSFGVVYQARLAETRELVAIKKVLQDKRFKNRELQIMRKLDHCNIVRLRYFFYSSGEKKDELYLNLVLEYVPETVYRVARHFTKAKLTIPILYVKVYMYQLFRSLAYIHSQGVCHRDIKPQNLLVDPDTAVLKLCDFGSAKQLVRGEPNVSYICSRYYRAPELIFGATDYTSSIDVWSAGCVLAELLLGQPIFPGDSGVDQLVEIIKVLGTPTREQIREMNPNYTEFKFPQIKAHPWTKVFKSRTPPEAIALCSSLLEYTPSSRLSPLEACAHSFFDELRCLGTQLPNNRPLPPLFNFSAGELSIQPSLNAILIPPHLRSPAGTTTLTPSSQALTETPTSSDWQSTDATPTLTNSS

In the case of O=C(O)CC(C(=O)O)N1C(=O)/C(=C/C=C/c2ccco2)SC1=S (centres undefined), the IC50 [1] is reported as 1.12 µM (active) and the IC50 [2] is reported as 91.8 µM (active).

For Cc1ccc(-c2cc(-c3cc(Br)ccc3O)[nH]c(=O)c2C#N)s1, the Ki [3] was 1.58 µM (active).

For Cc1ccc(C(=O)OCn2ncc(Cl)c(Cl)c2=O)cc1, the IC50 [4] was 1.53 µM (active) and the EC50 [5] was 924 nM (active).

For O=C(Nc1cccc(C2Nc3ccc4ccccc4c3C3C=CCC32)c1)c1ccc(F)cc1 (centres undefined), the Ki [6] was 1.58 µM (active).

With CCCC(=O)NC(c1cccs1)c1cc(Cl)c2cccnc2c1O (centres undefined) the EC50 [7] was 1.06 µM (active), the AC50 [8] was 1.06 µM (active) and the EC50 [9] was > 180 µM (inactive).
